# Assay results from article PMC10600239, “Selective MCL-1 inhibitor ABBV-467 is efficacious in tumor models but is associated with cardiac troponin increases in patients” (Communications Medicine, 2023).
# “And” between values parts separate entries of the source, which are not always exact repeats. Equal values may be shown once.
# System: AMO-1 xenografts
# Assay: AMO-1 xenograft efficacy (tumor volume, body weight)
# Assay type: in vivo, mouse
# Procedure: All animal studies were conducted in accordance with the guidelines approved by the Institutional Animal Care and Use Committees of AbbVie. The research protocol was approved by In Vivo Pharmacology at AbbVie prior to study initiation but was not publicly registered or disclosed. Female C.B-17 SCID-beige mice (AMO-1, OPM-2, NCI-H929, and OCI-AML2 xenografts) and female NSG mice (MV4-11-Red.Fluc systemic) were purchased from Charles River Laboratories (Wilmington, MA). Animals were housed in a light cycle-controlled room with HEPA filtration at 22 °C. Animals had nesting and climbing cage topper as the primary environmental enrichment. Animals were inoculated subcutaneously in the right flank with 5 × 10^6 (AMO-1, OPM-2, NCI-H929, and OCI-AML2) or intravenous (IV) with 5 × 10^6 (MV4-11-Red.Fluc). The inoculation volume (0.2 mL) comprised a 50:50 mixture of cells in growth media and Matrigel (BD Biosciences) for subcutaneous injections and 100% phosphate-buffered saline for IV administration. All cell lines used in this publication were authenticated using IDEXX for STR profiling as well as their IMPACT and human IMPACT panels for pathogen screening. Electronic calipers were used to measure the length and width of each tumor 2 to 3 times per week. Tumor volume was estimated by applying the following equation: volume = length × width^2/2. All groups remained blinded during measurements and dosing; only veterinary staff were aware of group identity. When tumors reached approximately 200 mm^3, mice were randomized by match and distributed into treatment and control groups. All xenograft trials were conducted using 5 to 10 mice per group, and all mice were ear tagged and monitored individually throughout the studies. […] Tumor burden in the systemic MV4-11-Red.Fluc experiment was measured using an IVIS® spectrum from PerkinElmer by taking the total photon flux of the entire dorsal side of an individual mouse. […] A background control mouse that was tumor naive but received D-Luciferin was placed in the upper left corner of each image. The total flux from this animal was subtracted from the total flux of each animal present in the image.
# For in vivo studies, maximal tumor growth inhibition (TGI) was calculated as the greatest treatment response using the following equation: Maximal TGI = (1 − mean tumor volume of the treated group/mean tumor volume of the vehicle control group) × 100. The tumor growth delay (TGD) percentage was determined as the percentage increase of the median time period for the treatment group to reach an arbitrary tumor volume of 1000 mm^3 relative to the vehicle control group. […] A power analysis was conducted using historical data to determine the number of animals required to yield significance of 0.05 at a 30% difference. […] Data from experiments in vivo were analyzed using the student’s t-test for TGI values and the Mann–Whitney U test for TGD using Excel and GraphPad Prism. Fisher’s exact test was used to probe significance of differences in response frequency.
# [1] = 6.25 mg/kg Q7Dx2 IV, SCID-beige female mice, Day 26
# [2] = 6.25 mg/kg Q7Dx2 IV, SCID-beige female mice, Day 28
# [3] = 6.25 mg/kg Q7Dx2 IV, SCID-beige mice, Day 13 (measure date 10/25/2017, dosing begin 10/26/2017)
# [4] = 6.25 mg/kg QDx1 IV, Day 26, n=8
# [5] = 6.25 mg/kg QDx1 IV, Day 28, n=8
# [6] = 6.25 mg/kg QDx1 IV, SCID-beige mice, Day 21
# [7] = 6.25 mg/kg QDx1 IV, SCID-beige mice, Day 23
# [8] = 6.25 mg/kg QDx1 IV, SCID-beige mice, Day 23, mean(T)/mean(C)
# [9] = 6.25 mg/kg QDx1 IV, SCID-beige mice, Day 23, median(T)/median(C)
structure (smiles),measurement,setting,value
Cc1c(Cl)c2c(Cl)c(C)c1-c1c(-c3ccc(F)cc3)sc3ncnc(c13)O[C@@H](C(=O)O)Cc1cc(ccc1OCc1ccnc(-c3ccc(OC[C@H]4COCCO4)cc3)n1)OC[C@@H](CN1CCN(C)CC1)O2 [Compound A-1747745.0],"Xenograft AMO-1 (DSMZ) tumor volume Day 24, Median","6.25 mg/kg Q7Dx2 IV, SCID-beige female mice, Day 24",183.76 mm³
same,"Xenograft AMO-1 (DSMZ) tumor volume Day 26, Mean",[1],300.68 mm³
same,"Xenograft AMO-1 (DSMZ) tumor volume Day 26, Median",[1],173.91 mm³
same,"Xenograft AMO-1 (DSMZ) tumor volume Day 26, individual animals",[1],165 mm³ and 890 mm³ and 293 mm³ and 308 mm³ and 143 mm³ and 174 mm³ and 132 mm³
same,"Xenograft AMO-1 (DSMZ) (mm³) Day 28, individual animals",[2],242 mm³ and 1605 mm³ and 585 mm³ and 510 mm³ and 266 mm³ and 306 mm³ and 32 mm³
same,Xenograft AMO-1 (DSMZ) Day 28 Mean,[2],506.48 mm³
same,Xenograft AMO-1 (DSMZ) Day 28 Median,[2],305.62 mm³
same,"Xenograft AMO-1 (DSMZ) tumor volume Day 13, Mean",[3],222.44 mm³
same,"Xenograft AMO-1 (DSMZ) tumor volume Day 13, Median",[3],219.48 mm³
same,"Xenograft AMO-1 (DSMZ) tumor volume Day 13, individual animals",[3],230 mm³ and 206 mm³ and 247 mm³ and 219 mm³ (2×) and 232 mm³ and 204 mm³
same,Xenograft AMO-1 (DSMZ) (mm³) Day 32 Mean,"6.25 mg/kg Q7Dx2 IV, group mean tumor volume, Day 32",1661.51 mm³
same,Xenograft AMO-1 (DSMZ) (mm³) Day 32 Median,"6.25 mg/kg Q7Dx2 IV, group median tumor volume, Day 32",1251.91 mm³
same,Xenograft AMO-1 (DSMZ) (mm³) Day 32,"6.25 mg/kg Q7Dx2 IV, individual animal tumor volume, Day 32",1252 mm³ and 3313 mm³ and 2126 mm³ and 1223 mm³ and 2463 mm³ and 1036 mm³ and 218 mm³
same,"Xenograft AMO-1 (DSMZ) tumor volume Day 26, Mean",[4],454.97 mm³
same,"Xenograft AMO-1 (DSMZ) tumor volume Day 26, Median",[4],392.97 mm³
same,% T/C (mean) tumor volume Day 26,"6.25 mg/kg QDx1 IV, Day 26, mean(T)/mean(C)",28.88%
same,% T/C (median) tumor volume Day 26,"6.25 mg/kg QDx1 IV, Day 26, median(T)/median(C)",24.60%
same,"Xenograft AMO-1 (DSMZ) tumor volume Day 28, Mean",[5],690.68 mm³
same,"Xenograft AMO-1 (DSMZ) tumor volume Day 28, Median",[5],578.26 mm³
same,% T/C (mean) tumor volume Day 28,"6.25 mg/kg QDx1 IV, Day 28, mean(T)/mean(C)",33.71%
same,% T/C (median) tumor volume Day 28,"6.25 mg/kg QDx1 IV, Day 28, median(T)/median(C)",29.98%
same,"Xenograft AMO-1 (DSMZ) tumor volume Day 26, individual animals","6.25 mg/kg QDx1 IV, SCID-beige female mice, Day 26",386 mm³ and 701 mm³ and 245 mm³ and 206 mm³ and 598 mm³ and 235 mm³ and 868 mm³ and 400 mm³
same,"Xenograft AMO-1 (DSMZ) tumor volume Day 28, individual animals","6.25 mg/kg QDx1 IV, SCID-beige female mice, Day 28",518 mm³ and 1122 mm³ and 542 mm³ and 307 mm³ and 666 mm³ and 511 mm³ and 1246 mm³ and 614 mm³
same,"Xenograft AMO-1 (DSMZ) Day 21, Mean",[6],175.92 mm³
same,"Xenograft AMO-1 (DSMZ) Day 21, Median",[6],202.13 mm³
same,"Xenograft AMO-1 (DSMZ) (mm³) Day 21, individual animals","6.25 mg/kg QDx1 IV, SCID-beige mice, Day 21, individual tumor volumes",202 mm³ (2×) and 236 mm³ and 49 mm³ and 84 mm³ and 144 mm³ and 230 mm³ and 260 mm³
same,"% T/C (mean), Tumor Volume Day 21","6.25 mg/kg QDx1 IV, SCID-beige mice, Day 21, mean(T)/mean(C)",27.52%
same,"% T/C (median), Tumor Volume Day 21","6.25 mg/kg QDx1 IV, SCID-beige mice, Day 21, median(T)/median(C)",38.38%
same,Xenograft AMO-1 (DSMZ) Day 23 Mean,[7],218.85 mm³
same,Xenograft AMO-1 (DSMZ) Day 23 Median,[7],225.89 mm³
same,"Xenograft AMO-1 (DSMZ) (mm³) Day 23, individual animals","6.25 mg/kg QDx1 IV, SCID-beige mice, Day 23, individual tumor volumes",209 mm³ and 282 mm³ and 56 mm³ and 156 mm³ and 155 mm³ and 243 mm³ and 349 mm³ and 301 mm³
same,"% T/C (mean), body weight Day 23",[8],103.53%
same,"% T/C (mean), tumor volume Day 23",[8],20.49%
same,"% T/C (median), body weight Day 23",[9],103.53%
same,"% T/C (median), tumor volume Day 23",[9],23.21%
same,Xenograft AMO-1 (DSMZ) (mm³) Day 30 (individual animals),"6.25 mg/kg QDx1 IV, Day 30, SCID-beige female mice, tumor volume per animal",694 mm³ and 1347 mm³ and 555 mm³ and 384 mm³ and 801 mm³ and 782 mm³ and 1535 mm³ and 959 mm³
same,Xenograft AMO-1 (DSMZ) (mm³) Day 30 Mean,"6.25 mg/kg QDx1 IV, Day 30, group mean",882.20 mm³
same,Xenograft AMO-1 (DSMZ) (mm³) Day 30 Median,"6.25 mg/kg QDx1 IV, Day 30, group median",791.67 mm³
same,Xenograft AMO-1 (DSMZ) (mm³) Day 34 (individual animals),"6.25 mg/kg QDx1 IV, Day 34, SCID-beige female mice, tumor volume per animal",2680 mm³ and 1975 mm³ and 1296 mm³ and 886 mm³ and 1388 mm³ and 1259 mm³ and 1718 mm³ and 1542 mm³
